Experimental data taken from ChEMBL document CHEMBL1201862, “PubChem BioAssay data set” (2004).
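Step 1: Grow cells in 96-well plates. Step 2: Expose to compound for 48 hours at 5 concentrations. Step 3: Interpolate endpoints linearly; if unreached, use highest concentration. At the GI50, growth is halved.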 The source made the active and inactive calls. No stated cut-off is given here; in the data, active = GI50 up to about 1.1 µM and inactive = higher.

How the values were obtained:
Test in all cases: growth of human tumour cells (NCI), 48 h
[1] = system: UACC-257
[2] = system: A549
[3] = system: M19-MEL
[4] = system: SK-MEL-5
[5] = system: K562
[6] = system: SNB-75
[7] = system: HCC 2998
[8] = system: XF498
[9] = system: HT-29
[10] = system: HOP-62
[11] = system: HL-60
[12] = system: Malme-3M
[13] = system: KM-20L2
[14] = system: SF-539
[15] = system: HCT-15
[16] = system: OVCAR-5
[17] = system: IGROV-1
[18] = system: A498
[19] = system: OVCAR-3
[20] = system: UO-31
[21] = system: TK-10
[22] = system: M14
[23] = system: SK-MEL-2
[24] = system: OVCAR-8
[25] = system: HCT-116
[26] = system: CCRF-CEM
[27] = system: SF-295
[28] = system: SNB-19
[29] = system: NCI-H522
[30] = system: UACC-62
[31] = system: MOLT-4
[32] = system: SK-OV-3
[33] = system: SW-620
[34] = system: COLO 205
[35] = system: DLD-1
[36] = system: LOX IMVI
[37] = system: DMS-114
[38] = system: SK-MEL-28
[39] = system: NCI-H23
[40] = system: SN12C
[41] = system: EKVX
[42] = system: NCI-H460
[43] = system: 786-0
[44] = system: U-251
[45] = system: OVCAR-4
[46] = system: KM12
[47] = system: RPMI-8226
[48] = system: LXFL 529
[49] = system: SNB-78
[50] = system: DMS-273
[51] = system: SF-268
[52] = system: CAKI-1
[53] = system: ACHN
[54] = system: DU-145
[55] = system: MDA-MB-231
[56] = system: RXF 393
[57] = system: NCI/ADR-RES
[58] = system: MCF7
[59] = system: PC-3
[60] = system: HOP-18
[61] = system: T47D
[62] = system: HOP-92
[63] = system: MDA-MB-435
[64] = system: SR
[65] = system: Hs-578T
[66] = system: MDA-N

Measured: GI50

COc1ccc(NC(=O)CC(=O)n2nc(C)c(/N=N/c3ccccc3C(=O)O)c2C)cc1
> 100000 nM: [15]
inactive: [1] > 100000 nM | [2] > 100000 nM | [3] > 100000 nM | [4] > 100000 nM | [5] > 100000 nM | [6] 33000 nM | [7] > 100000 nM | [8] > 100000 nM | [9] > 100000 nM | [10] > 100000 nM | [11] > 100000 nM | [12] > 100000 nM | [13] > 100000 nM | [14] > 100000 nM | [16] > 100000 nM | [17] > 100000 nM | [18] > 100000 nM | [19] > 100000 nM | [20] > 100000 nM | [21] > 100000 nM | [22] > 100000 nM | [23] > 100000 nM | [24] > 100000 nM | [25] > 100000 nM | [26] > 100000 nM | [27] > 100000 nM | [28] 80700 nM | [29] > 100000 nM | [30] > 100000 nM | [31] > 100000 nM | [32] 40300 nM | [33] > 100000 nM | [34] > 100000 nM | [35] > 100000 nM | [36] > 100000 nM | [37] > 100000 nM | [38] > 100000 nM | [39] > 100000 nM | [40] > 100000 nM | [41] > 100000 nM | [42] > 100000 nM | [43] 77300 nM | [44] > 100000 nM | [45] > 100000 nM | [46] > 100000 nM | [47] > 100000 nM | [48] > 100000 nM | [49] 29300 nM | [50] > 100000 nM | [51] > 100000 nM | [52] > 100000 nM

CC(=O)NC1C(OCc2ccccc2)OC(CO)C(O)C1OC(C)C(=O)NC(C)C(=O)N[C@@H](CCC(=O)OCCCNC1c2ccccc2Nc2cccc([N+](=O)[O-])c21)C(N)=O (some centres undefined)
2.8 nM: [15]
active: [1] 12.3 nM | [2] < 10 nM | [4] < 10 nM | [53] < 10 nM | [54] 31.4 nM | [5] < 10 nM | [6] 13.5 nM | [7] < 10 nM | [55] 28.2 nM | [56] 14.1 nM | [9] < 10 nM | [10] < 10 nM | [11] < 11.7 nM | [12] < 10 nM | [13] < 10 nM | [14] < 10 nM | [57] 14.5 nM | [16] 22.3 nM | [17] 22.2 nM | [58] 12.4 nM | [18] < 10 nM | [59] 26.6 nM | [19] < 10 nM | [20] < 10 nM | [21] < 10 nM | [60] < 10 nM | [22] < 10 nM | [23] < 10 nM | [24] < 10 nM | [25] < 10 nM | [61] 174 nM | [27] 15.5 nM | [62] < 10 nM | [28] < 12.4 nM | [63] 15.7 nM | [29] < 10 nM | [30] < 10 nM | [31] 10.2 nM | [32] 19.4 nM | [33] < 10 nM | [64] < 10 nM | [34] < 10 nM | [65] 21.6 nM | [35] < 10 nM | [36] 26.9 nM | [38] < 10 nM | [39] < 10 nM | [40] < 10 nM | [41] 13.5 nM | [42] < 10 nM | [43] < 10 nM | [44] < 10 nM | [45] < 11.1 nM | [46] < 10 nM | [47] < 10 nM | [48] < 10 nM | [49] 12.1 nM | [50] < 10 nM | [66] 15.2 nM | [51] < 10 nM | [52] < 10 nM
